Results published in paper PMC4139342, “Pharmacokinetics-Pharmacodynamics Analysis of Bicyclic 4-Nitroimidazole Analogs in a Murine Model of Tuberculosis” (PLoS ONE, 2014).
Converted amounts (≈) assume the structure as drawn. Read-outs that look alike come from different tables or passages of the source.

Columns and labels:
[1] = system: M. tuberculosis (Mtb) (H37Rv, ATCC 27294); experiment: microbe, parasite or virus in culture; type: cell-based; conditions: Mycobacterium tuberculosis
[2] = Cytotoxicity against THP1 macrophage cell lines; type: cell-based; conditions: human
Mtb H37Rv = experiment: In vivo mouse efficacy, established murine TB model; set-up: species or system Balb/c mice; conditions: for Mean log lung CFU ± SEM / log reduction at 100 mg/kg / log reduction at 25 mg/kg: 5 animals; for Efficacy compared with PA-824, in words: significance at P<0.05; for log reduction at 100 mg/kg / log reduction at 25 mg/kg: Mycobacterium tuberculosis, H37RV, po, 672 h, read-out: Mean log lung CFU reduction ± SEM compared to untreated controls
Procedure: In vivo mouse efficacy studies were determined after intranasal infection of Balb/c mice with 10^3 cfu Mtb H37Rv. Treatment was initiated 4 weeks after infection. Compounds were orally administered in CM-2 formulation for 4 weeks daily. Bacterial loads were determined at 2 and 4 weeks post treatment. Statistical analysis was done by a one-way analysis of variance, followed by a multiple comparison analysis of variance by a one-way Tukey test (GraphPad Prism, version 5.02, San Diago, California USA, www.graphpad.com). Differences were considered statistically significant at the 95% level of confidence.

[3] = female, CD-1, mouse, in vivo, po
in vivo [4] = conditions: female, CD-1, mouse, po
in vivo [5] = conditions: female, CD-1, mouse, iv; for clearance: i.v. CL
in vivo [6] = conditions: female, CD-1, mouse, po; remark: listed apart in the source
physchem [7] = conditions: pH 6.8, aqueous buffer, thermodynamic from solid
physchem [8] = experiment: physchem
in vitro [9] = conditions: human, Caco-2
in vitro [10] = conditions: mouse, plasma
[11] = In vivo lung PK after oral dosing; conditions: female, CD-1, mouse
[12] = In vivo plasma PK after intravenous dosing; conditions: mice; for half-life: female, CD-1, mouse, plasma, iv, T1/2 (i.v)
[13] = In vivo plasma PK after oral dosing in CM-2 formulation; conditions: female, CD-1, mouse, plasma, po
[14] = female, CD-1, mouse, in vivo, po, 25 mg/kg
[15] = 100 mg/kg oral daily for 4 weeks
[16] = 25 mg/kg oral daily for 4 weeks
[17] = 25 mg/kg, Lung to Plasma ratio AUC24
[18] = 25 mg/kg, Lung to Plasma ratio Cmax
[19] = 5 mg/kg, i.v. dosing at 5 mg/kg

Structure (SMILES) | MIC99 [1] [µg/mL] | CC50 [2] [µg/mL] | Mean log lung CFU ± SEM (Mtb H37Rv; [15]) [log CFU] | Efficacy compared with PA-824, in words (Mtb H37Rv; [15]) | log reduction at 100 mg/kg (Mtb H37Rv; [15]) | PAMPA %FA [%] | PAMPA Log Pe | solubility (physchem [7]) [µg/mL] | logP (physchem [8]) | Papp A→B (in vitro [9]) [×10⁻⁶ cm/s] | Papp B→A (in vitro [9]) [×10⁻⁶ cm/s] | efflux ratio (in vitro [9]) | fraction unbound (in vitro [10]) | Mean log lung CFU ± SEM (Mtb H37Rv; [16]) [log CFU] | Efficacy compared with PA-824, in words (Mtb H37Rv; [16]) | log reduction at 25 mg/kg (Mtb H37Rv; [16]) | Plasma free fCmax [14] [µg/mL] | Lung AUC24 ([3]; 25 mg/kg) [µg·h/g] | Lung Cmax ([3]; 25 mg/kg) [µg/g] | AUC (in vivo [4]; 25 mg/kg) [ng·h/mL] | further results
O=[N+]([O-])c1cn2c(n1)OC[C@@H](NCCc1ccc(OC(F)(F)F)cc1)C2 [AminoEthyl-824] | 0.06 (≈ 0.161 µM) | > 10 | 4.53±0.07 | comparable efficacy to PA-824 | 1.69 ± 0.07 | 85 | –4.6 cm/sec | 104 (≈ 279 µM) | 3.6 | 18.6 | 20.7 | 1.1 | 0.55 | – | – | – | – | – | – | – | Lung AUC24 ([3]; 10 mg/kg): 5.2 µg·h/g; Lung Cmax ([3]; 10 mg/kg): 1.6 µg/g; AUC (in vivo [4]; 10 mg/kg): 2900 ng·h/mL; Cmax (in vivo [4]; 10 mg/kg): 1000 ng/mL; bioavailability (in vivo [4]; 10 mg/kg): 76%; Vd (in vivo [5]; 10 mg/kg): 2 L/kg; clearance (in vivo [5]; 10 mg/kg): 44 mL/min/kg; Kp (in vivo [6]; 10 mg/kg, Lung to Plasma ratio AUC24): 1.8; Kp (in vivo [6]; 10 mg/kg, Lung to Plasma ratio Cmax): 1.6; half-life ([11]; 10 mg/kg): 1.2 h; half-life ([12]; 10 mg/kg, i.v. dosing at 10 mg/kg): < 1 h; T1/2 (i.v) ([12]; i.v. dosing at 10 mg/kg, 10 mg/kg): 0.7 h; half-life ([13]; 10 mg/kg): 1.7 h
CC[C@H]1Oc2nc([N+](=O)[O-])cn2C[C@@H]1NCc1ccc(-c2ccc(OC(F)(F)F)cc2)cc1 [NI-297] | 0.02 (≈ 0.0432 µM) | > 10 | – | – | – | 97 | –4.1 cm/sec | < 2 | 6 | – | – | – | 0.018 | 4.51±0.11 | comparable efficacy to PA-824 | 1.23 to 1.56 | 0.1 | 233.4 | 16.3 | 99100 | Cmax (in vivo [4]; 25 mg/kg): 6000 ng/mL; Tmax (in vivo [4]; 25 mg/kg): 8 h; bioavailability (in vivo [4]; 25 mg/kg): 100%; Vd (in vivo [5]; 5 mg/kg): 2.6 L/kg; clearance (in vivo [5]; 5 mg/kg): 5 mL/min/kg; Tmax (in vivo [6]; 25 mg/kg): 8 h; Kp (in vivo [6]; [17]): 2.4; Kp (in vivo [6]; [18]): 2.7; half-life ([11]; 25 mg/kg): 4.6 h; half-life [12, 19]: 6.7 h; half-life ([13]; 25 mg/kg): 4.9 h
COc1ccc(C[C@H](N)C(=O)N[C@H]2[C@@H](O)[C@H](n3cnc4c(N(C)C)ncnc43)O[C@@H]2CO)cc1 [Puromycin, reference compound] | – | – | – | – | – | – | – | – | – | – | – | – | – | – | – | – | – | – | – | – | CC50 ([2]; THP1 macrophage cell lines, read-out: Cytotoxicity CC50): 1.4 µg/mL (≈ 2.97 µM)
CC[C@H]1Oc2nc([N+](=O)[O-])cn2C[C@@H]1NCc1ccc(OC(F)(F)F)cc1 [NI-182] | 0.02 (≈ 0.0518 µM) | > 10 | 4.81±0.18 | significantly (P<0.05) less efficacious than PA-824 | 1.26 ± 0.18 | 99 | –3.8 cm/sec | 32 (≈ 82.8 µM) | 3.05 | 18.3 | 13.9 | 0.8 | 0.087 | 4.84±0.14 | comparable efficacy to PA-824 | 1.23 to 1.56 | 0.3 | 73.2 | 11.4 | 22500 | Dose dependence of efficacy, in words (Mtb H37Rv; 25 versus 100 mg/kg oral daily for 4 weeks): no dose-dependent increase in bactericidal activity; Cmax (in vivo [4]; 25 mg/kg): 3500 ng/mL; Tmax (in vivo [4]; 25 mg/kg): 0.5 h; bioavailability (in vivo [4]; 25 mg/kg): 82%; Vd (in vivo [5]; 5 mg/kg): 3 L/kg; clearance (in vivo [5]; 5 mg/kg): 15.2 mL/min/kg; Tmax (in vivo [6]; 25 mg/kg): 0.5 h; Kp (in vivo [6]; [17]): 3.3; Kp (in vivo [6]; [18]): 3.3; half-life ([11]; 25 mg/kg): 1.9 h; half-life [12, 19]: 2.8 h; half-life ([13]; 25 mg/kg): 2 h
